Source: the NIST ThermoML archive (doi:10.1016/j.jct.2019.05.021)
Numbers after ± are expanded uncertainties.

Assay: not given
Conditions: 293.15 K; 100 kPa; Liquid; Falling or rolling sphere viscometry

Structure (SMILES) | viscosity
CCCCCCCCCCCC(=O)OC [methyl dodecanoate] | 3.151 ± 0.067 mPa·s
CCCCCCCCCCCCCC(=O)OC [methyl tetradecanoate] | 4.557 ± 0.1 mPa·s

Further lines, results first:

viscosity | Structure (SMILES)
0.733 ± 0.016 mPa·s | CC1CCCCC1 [methylcyclohexane]
2.125 ± 0.047 mPa·s | CCCCCCCCCC(=O)OC [methyl decanoate]

Same assay, conditions: 293.15 K; 100 kPa; Liquid; Vibrating tube method

Structure (SMILES) | mass density
CCCCCCCCCCCC(=O)OC [methyl dodecanoate] | 869.3 ± 1.7 kg/m3
CCCCCCCCCCCCCC(=O)OC [methyl tetradecanoate] | 867.17 ± 1.8 kg/m3

Now from value to compound:

mass density | Structure (SMILES)
769.38 ± 1.6 kg/m3 | CC1CCCCC1 [methylcyclohexane]
872.25 ± 1.8 kg/m3 | CCCCCCCCCC(=O)OC [methyl decanoate]

Same assay, conditions: 298.15 K; 100 kPa; Liquid; Falling or rolling sphere viscometry

Structure (SMILES) | viscosity
CCCCCCCCCCCC(=O)OC [methyl dodecanoate] | 2.792 ± 0.06 mPa·s
CCCCCCCCCCCCCC(=O)OC [methyl tetradecanoate] | 3.979 ± 0.088 mPa·s

Other lines, results leading:

viscosity | Structure (SMILES)
0.681 ± 0.015 mPa·s | CC1CCCCC1 [methylcyclohexane]
1.909 ± 0.042 mPa·s | CCCCCCCCCC(=O)OC [methyl decanoate]

Same assay, conditions: 298.15 K; 100 kPa; Liquid; Vibrating tube method

Structure (SMILES) | mass density
CCCCCCCCCCCC(=O)OC [methyl dodecanoate] | 865.39 ± 1.7 kg/m3
CCCCCCCCCCCCCC(=O)OC [methyl tetradecanoate] | 863.35 ± 1.8 kg/m3

Results, then the compound that gave them:

mass density | Structure (SMILES)
765.06 ± 1.5 kg/m3 | CC1CCCCC1 [methylcyclohexane]
868.16 ± 1.8 kg/m3 | CCCCCCCCCC(=O)OC [methyl decanoate]

Same assay, conditions: 303.15 K; 100 kPa; Liquid; Falling or rolling sphere viscometry

Structure (SMILES) | viscosity
CCCCCCCCCCCC(=O)OC [methyl dodecanoate] | 2.504 ± 0.054 mPa·s
CCCCCCCCCCCCCC(=O)OC [methyl tetradecanoate] | 3.519 ± 0.078 mPa·s

Results, then the compound that gave them:

viscosity | Structure (SMILES)
0.638 ± 0.014 mPa·s | CC1CCCCC1 [methylcyclohexane]
1.738 ± 0.038 mPa·s | CCCCCCCCCC(=O)OC [methyl decanoate]

Same assay, conditions: 303.15 K; 100 kPa; Liquid; Vibrating tube method

Structure (SMILES) | mass density
CCCCCCCCCCCC(=O)OC [methyl dodecanoate] | 861.46 ± 1.7 kg/m3
CCCCCCCCCCCCCC(=O)OC [methyl tetradecanoate] | 859.54 ± 1.8 kg/m3

The remaining lines, values ahead:

mass density | Structure (SMILES)
760.71 ± 1.5 kg/m3 | CC1CCCCC1 [methylcyclohexane]
864.06 ± 1.8 kg/m3 | CCCCCCCCCC(=O)OC [methyl decanoate]

Same assay, conditions: 308.15 K; 100 kPa; Liquid; Falling or rolling sphere viscometry

Structure (SMILES) | viscosity
CCCCCCCCCCCC(=O)OC [methyl dodecanoate] | 2.263 ± 0.048 mPa·s
CCCCCCCCCCCCCC(=O)OC [methyl tetradecanoate] | 3.093 ± 0.069 mPa·s

Second part, the compound after the results:

viscosity | Structure (SMILES)
0.599 ± 0.013 mPa·s | CC1CCCCC1 [methylcyclohexane]
1.588 ± 0.035 mPa·s | CCCCCCCCCC(=O)OC [methyl decanoate]

Same assay, conditions: 308.15 K; 100 kPa; Liquid; Vibrating tube method

Structure (SMILES) | mass density
CCCCCCCCCCCC(=O)OC [methyl dodecanoate] | 857.53 ± 1.7 kg/m3
CCCCCCCCCCCCCC(=O)OC [methyl tetradecanoate] | 855.74 ± 1.7 kg/m3

The next lines start with the values.

mass density | Structure (SMILES)
756.35 ± 1.5 kg/m3 | CC1CCCCC1 [methylcyclohexane]
859.96 ± 1.7 kg/m3 | CCCCCCCCCC(=O)OC [methyl decanoate]

Same assay, conditions: 313.15 K; 100 kPa; Liquid; Falling or rolling sphere viscometry

Structure (SMILES) | viscosity
CCCCCCCCCCCC(=O)OC [methyl dodecanoate] | 2.049 ± 0.044 mPa·s
CCCCCCCCCCCCCC(=O)OC [methyl tetradecanoate] | 2.797 ± 0.062 mPa·s

The remaining lines, values ahead:

viscosity | Structure (SMILES)
0.563 ± 0.012 mPa·s | CC1CCCCC1 [methylcyclohexane]
1.453 ± 0.032 mPa·s | CCCCCCCCCC(=O)OC [methyl decanoate]

Same assay, conditions: 313.15 K; 100 kPa; Liquid; Vibrating tube method

Structure (SMILES) | mass density
CCCCCCCCCCCC(=O)OC [methyl dodecanoate] | 853.61 ± 1.7 kg/m3
CCCCCCCCCCCCCC(=O)OC [methyl tetradecanoate] | 851.94 ± 1.7 kg/m3

Second part, the compound after the results:

mass density | Structure (SMILES)
751.98 ± 1.5 kg/m3 | CC1CCCCC1 [methylcyclohexane]
855.85 ± 1.7 kg/m3 | CCCCCCCCCC(=O)OC [methyl decanoate]

Same assay, conditions: 318.15 K; 100 kPa; Liquid; Falling or rolling sphere viscometry

Structure (SMILES) | viscosity
CCCCCCCCCCCC(=O)OC [methyl dodecanoate] | 1.875 ± 0.04 mPa·s
CCCCCCCCCCCCCC(=O)OC [methyl tetradecanoate] | 2.544 ± 0.056 mPa·s

Now from value to compound:

viscosity | Structure (SMILES)
0.533 ± 0.011 mPa·s | CC1CCCCC1 [methylcyclohexane]
1.341 ± 0.029 mPa·s | CCCCCCCCCC(=O)OC [methyl decanoate]

Same assay, conditions: 318.15 K; 100 kPa; Liquid; Vibrating tube method

Structure (SMILES) | mass density
CCCCCCCCCCCC(=O)OC [methyl dodecanoate] | 849.69 ± 1.7 kg/m3
CCCCCCCCCCCCCC(=O)OC [methyl tetradecanoate] | 848.14 ± 1.7 kg/m3

Continued, values first:

mass density | Structure (SMILES)
747.59 ± 1.5 kg/m3 | CC1CCCCC1 [methylcyclohexane]
851.74 ± 1.7 kg/m3 | CCCCCCCCCC(=O)OC [methyl decanoate]

Same assay, conditions: 323.15 K; 100 kPa; Liquid; Falling or rolling sphere viscometry

Structure (SMILES) | viscosity
CCCCCCCCCCCC(=O)OC [methyl dodecanoate] | 1.729 ± 0.037 mPa·s
CCCCCCCCCCCCCC(=O)OC [methyl tetradecanoate] | 2.308 ± 0.051 mPa·s

Other lines, results leading:

viscosity | Structure (SMILES)
0.505 ± 0.011 mPa·s | CC1CCCCC1 [methylcyclohexane]
1.245 ± 0.027 mPa·s | CCCCCCCCCC(=O)OC [methyl decanoate]

Same assay, conditions: 323.15 K; 100 kPa; Liquid; Vibrating tube method

Structure (SMILES) | mass density
CCCCCCCCCCCC(=O)OC [methyl dodecanoate] | 845.76 ± 1.7 kg/m3
CCCCCCCCCCCCCC(=O)OC [methyl tetradecanoate] | 844.34 ± 1.7 kg/m3

Next, values leading:

mass density | Structure (SMILES)
743.19 ± 1.5 kg/m3 | CC1CCCCC1 [methylcyclohexane]
847.62 ± 1.7 kg/m3 | CCCCCCCCCC(=O)OC [methyl decanoate]

Assay: xn = mol fraction of the nth substance listed
Conditions: 293.15 K; 100 kPa; Liquid; Falling or rolling sphere viscometry; x1 = 1

viscosity | Structure (SMILES)
0.733 ± 0.016 mPa·s | CC1CCCCC1 [methylcyclohexane] + CCCCCCCCCCCCCC(=O)OC
0.733 ± 0.016 mPa·s | CC1CCCCC1 [methylcyclohexane] + CCCCCCCCCC(=O)OC
0.733 ± 0.016 mPa·s | CC1CCCCC1 [methylcyclohexane] + CCCCCCCCCCCC(=O)OC

Same assay, conditions: 293.15 K; 100 kPa; Liquid; Vibrating tube method; x1 = 1

mass density | Structure (SMILES)
769.38 ± 1.6 kg/m3 | CC1CCCCC1 [methylcyclohexane] + CCCCCCCCCCCCCC(=O)OC
769.38 ± 1.6 kg/m3 | CC1CCCCC1 [methylcyclohexane] + CCCCCCCCCC(=O)OC
769.38 ± 1.6 kg/m3 | CC1CCCCC1 [methylcyclohexane] + CCCCCCCCCCCC(=O)OC

Same assay, conditions: 298.15 K; 100 kPa; Liquid; Falling or rolling sphere viscometry; x1 = 1

viscosity | Structure (SMILES)
0.681 ± 0.015 mPa·s | CC1CCCCC1 [methylcyclohexane] + CCCCCCCCCCCCCC(=O)OC
0.681 ± 0.015 mPa·s | CC1CCCCC1 [methylcyclohexane] + CCCCCCCCCC(=O)OC
0.681 ± 0.015 mPa·s | CC1CCCCC1 [methylcyclohexane] + CCCCCCCCCCCC(=O)OC

Same assay, conditions: 298.15 K; 100 kPa; Liquid; Vibrating tube method; x1 = 1

mass density | Structure (SMILES)
765.06 ± 1.5 kg/m3 | CC1CCCCC1 [methylcyclohexane] + CCCCCCCCCCCCCC(=O)OC
765.06 ± 1.5 kg/m3 | CC1CCCCC1 [methylcyclohexane] + CCCCCCCCCC(=O)OC
765.06 ± 1.5 kg/m3 | CC1CCCCC1 [methylcyclohexane] + CCCCCCCCCCCC(=O)OC

Same assay, conditions: 303.15 K; 100 kPa; Liquid; Falling or rolling sphere viscometry; x1 = 1

viscosity | Structure (SMILES)
0.638 ± 0.014 mPa·s | CC1CCCCC1 [methylcyclohexane] + CCCCCCCCCCCCCC(=O)OC
0.638 ± 0.014 mPa·s | CC1CCCCC1 [methylcyclohexane] + CCCCCCCCCC(=O)OC
0.638 ± 0.014 mPa·s | CC1CCCCC1 [methylcyclohexane] + CCCCCCCCCCCC(=O)OC

Same assay, conditions: 303.15 K; 100 kPa; Liquid; Vibrating tube method; x1 = 1

mass density | Structure (SMILES)
760.71 ± 1.5 kg/m3 | CC1CCCCC1 [methylcyclohexane] + CCCCCCCCCCCCCC(=O)OC
760.71 ± 1.5 kg/m3 | CC1CCCCC1 [methylcyclohexane] + CCCCCCCCCC(=O)OC
760.71 ± 1.5 kg/m3 | CC1CCCCC1 [methylcyclohexane] + CCCCCCCCCCCC(=O)OC

Same assay, conditions: 308.15 K; 100 kPa; Liquid; Falling or rolling sphere viscometry; x1 = 1

viscosity | Structure (SMILES)
0.599 ± 0.013 mPa·s | CC1CCCCC1 [methylcyclohexane] + CCCCCCCCCCCCCC(=O)OC
0.599 ± 0.013 mPa·s | CC1CCCCC1 [methylcyclohexane] + CCCCCCCCCC(=O)OC
0.599 ± 0.013 mPa·s | CC1CCCCC1 [methylcyclohexane] + CCCCCCCCCCCC(=O)OC

Same assay, conditions: 308.15 K; 100 kPa; Liquid; Vibrating tube method; x1 = 1

mass density | Structure (SMILES)
756.35 ± 1.5 kg/m3 | CC1CCCCC1 [methylcyclohexane] + CCCCCCCCCCCCCC(=O)OC
756.35 ± 1.5 kg/m3 | CC1CCCCC1 [methylcyclohexane] + CCCCCCCCCC(=O)OC
756.35 ± 1.5 kg/m3 | CC1CCCCC1 [methylcyclohexane] + CCCCCCCCCCCC(=O)OC

Same assay, conditions: 313.15 K; 100 kPa; Liquid; Falling or rolling sphere viscometry; x1 = 1

viscosity | Structure (SMILES)
0.563 ± 0.012 mPa·s | CC1CCCCC1 [methylcyclohexane] + CCCCCCCCCCCCCC(=O)OC
0.563 ± 0.012 mPa·s | CC1CCCCC1 [methylcyclohexane] + CCCCCCCCCC(=O)OC
0.563 ± 0.012 mPa·s | CC1CCCCC1 [methylcyclohexane] + CCCCCCCCCCCC(=O)OC

Same assay, conditions: 313.15 K; 100 kPa; Liquid; Vibrating tube method; x1 = 1

mass density | Structure (SMILES)
751.98 ± 1.5 kg/m3 | CC1CCCCC1 [methylcyclohexane] + CCCCCCCCCCCCCC(=O)OC
751.98 ± 1.5 kg/m3 | CC1CCCCC1 [methylcyclohexane] + CCCCCCCCCC(=O)OC
751.98 ± 1.5 kg/m3 | CC1CCCCC1 [methylcyclohexane] + CCCCCCCCCCCC(=O)OC

Same assay, conditions: 318.15 K; 100 kPa; Liquid; Falling or rolling sphere viscometry; x1 = 1

viscosity | Structure (SMILES)
0.533 ± 0.011 mPa·s | CC1CCCCC1 [methylcyclohexane] + CCCCCCCCCCCCCC(=O)OC
0.533 ± 0.011 mPa·s | CC1CCCCC1 [methylcyclohexane] + CCCCCCCCCC(=O)OC
0.533 ± 0.011 mPa·s | CC1CCCCC1 [methylcyclohexane] + CCCCCCCCCCCC(=O)OC

Same assay, conditions: 318.15 K; 100 kPa; Liquid; Vibrating tube method; x1 = 1

mass density | Structure (SMILES)
747.59 ± 1.5 kg/m3 | CC1CCCCC1 [methylcyclohexane] + CCCCCCCCCCCCCC(=O)OC
747.59 ± 1.5 kg/m3 | CC1CCCCC1 [methylcyclohexane] + CCCCCCCCCC(=O)OC
747.59 ± 1.5 kg/m3 | CC1CCCCC1 [methylcyclohexane] + CCCCCCCCCCCC(=O)OC

Same assay, conditions: 323.15 K; 100 kPa; Liquid; Falling or rolling sphere viscometry; x1 = 1

viscosity | Structure (SMILES)
0.505 ± 0.011 mPa·s | CC1CCCCC1 [methylcyclohexane] + CCCCCCCCCCCCCC(=O)OC
0.505 ± 0.011 mPa·s | CC1CCCCC1 [methylcyclohexane] + CCCCCCCCCC(=O)OC
0.505 ± 0.011 mPa·s | CC1CCCCC1 [methylcyclohexane] + CCCCCCCCCCCC(=O)OC

Same assay, conditions: 323.15 K; 100 kPa; Liquid; Vibrating tube method; x1 = 1

mass density | Structure (SMILES)
743.19 ± 1.5 kg/m3 | CC1CCCCC1 [methylcyclohexane] + CCCCCCCCCCCCCC(=O)OC
743.19 ± 1.5 kg/m3 | CC1CCCCC1 [methylcyclohexane] + CCCCCCCCCC(=O)OC
743.19 ± 1.5 kg/m3 | CC1CCCCC1 [methylcyclohexane] + CCCCCCCCCCCC(=O)OC
